Measurements published in patent US9085551B2, “Solid forms of 3-(4-nitro-1-oxisoindolin-2-yl)piperidine-2,6-dione” (Celgene Corporation, priority 2012, dated 2015).
Entries after “also recorded” stand apart in the source; their conditions may differ.

What was measured:
Format in all cases: physicochemical
[1] = Equilibration (slurry) of solid forms in batch solvents, solid analyzed by XRPD
Procedure: Equilibration studies using single, binary and ternary combinations of batch solvents (water, acetone, and acetonitrile) were investigated to mimic key steps in manufacturing 3-(4-nitro-1-oxoisoindolin-2-yl)piperidine-2,6-dione. Materials of 3-(4-nitro-1-oxoisoindolin-2-yl)piperidine-2,6-dione and solvent or solvent mixtures were added to a glass vial to achieve free-flowing slurry and allowed to equilibrate at the specified temperature. […] The solid phase was then dried under air and analyzed by XRPD.
A total of four batches of 3-(4-nitro-1-oxoisoindolin-2-yl)piperidine-2,6-dione were characterized by XRPD, DSC, TGA, ATR-FTIR and DVS, as described in section 6.5. The solid form represented by the batch 1 was designated as Form A; the solid form represented by the batch 4 was designated as Form B; the batches 2 and 3 were determined to be mixtures of Forms A and B, with Form B dominating the patterns. The equilibration experiments were performed using batches 2, 3 and 4, and the results are described in Table 2.
(§1) All of the solid samples generated in the polymorph screen were analyzed by XRPD. XRPD analysis was conducted on a PANalytical Empyrean or a Thermo ARL X'TRA X-ray powder diffractometer using Cu Kα radiation at 1.54 Å.

[2] = Dynamic Vapor Sorption (DVS) hygroscopicity; conditions: for total mass change between 0% and 90% relative humidity: DVS at 25° C., 0% to 90% RH; for hygroscopicity: DVS, 0% to 90% relative humidity; for XRPD pattern after adsorption/desorption cycles: after DVS
Procedure: Hygroscopicity was determined on a Surface Measurement Systems DVS. Typically a sample size of 5-30 mg was loaded into the DVS instrument sample pan and the sample was analyzed on a DVS automated sorption analyzer at 25° C. The relative humidity was increased from 0% to 90% RH at 10% RH step. The relative humidity was then decreased in a similar manner to accomplish a full adsorption/desorption cycle.

[3] = Additional form conversion experiments (heating, slurry), XRPD
Procedure: as §1

conversion to other forms ([1]; form conversion studies) | relative thermodynamic stability of the form ([1]; form conversion studies) | total mass change between 0% and 90% relative humidity [2] | hygroscopicity [2] | XRPD pattern after adsorption/desorption cycles [2] | Form by XRPD ([1]; equilibration in acetone, ambient, 8 days) | Form by XRPD ([1]; equilibration in acetone/water (1:1), ambient, 8 days) | Form by XRPD ([1]; equilibration in acetonitrile, 80° C. (or reflux), 6 hours) | Form by XRPD ([1]; equilibration in acetonitrile/water (1:1), ambient, 8 days) | Form by XRPD ([1]; equilibration in acetonitrile/water (2:1), 60° C., 6 hours) | Form by XRPD ([1]; equilibration in acetonitrile/water/acetone (1:1:1), ambient, 8 days) | Form by XRPD ([1]; equilibration in water, ambient, 8 days) | form conversion ([3]; ambient temperature, NMP/acetone/water (1:2.5:2.5), time not stated) | XRPD Result ([3]; slurry in NMP/Acetone/water at ambient for 5 days) | XRPD Result ([3]; slurry in NMP/Acetone/water at ambient for 10 days) | Structure (SMILES) | XRPD Result ([3]; heated to 220° C. for 4 hours)
no conversion | most thermodynamically stable form | 0.42% | not hygroscopic | no change | – | – | – | – | – | – | – | – | – | – | O=C1CCC(N2Cc3c(cccc3[N+](=O)[O-])C2=O)C(=O)N1 (single isomer, unassigned) [Form A, 3-(4-nitro-1-oxoisoindolin-2-yl)piperidine-2,6-dione] | –
– | – | 0.39% | not hygroscopic | no change | converts to Form A | converts to Form A | converts to Form A | converts to Form A | converts to Form A | converts to Form A | converts to Form A | – | – | – | O=C1CCC(N2Cc3c(cccc3[N+](=O)[O-])C2=O)C(=O)N1 (single isomer, unassigned) [Form B, 3-(4-nitro-1-oxoisoindolin-2-yl)piperidine-2,6-dione] | converts to Form A
– | – | 0.43% | not hygroscopic | no change | – | – | – | – | – | – | – | converts to Form A | Form A + C | Form A + C | O=C1CCC(N2Cc3c(cccc3[N+](=O)[O-])C2=O)C(=O)N1 (single isomer, unassigned) [Form C, 3-(4-nitro-1-oxoisoindolin-2-yl)piperidine-2,6-dione] | partially converts to Form A; also recorded: Form A + C
